Data published in patent publication US9670161B2, “5-fluoro-N-(pyridin-2-yl)pyridin-2-amine derivatives containing a sulfone group” (BAYER PHARMA AKTIENGESELLSCHAFT, priority 2012, dated 2017).

Assay: Caco-2 permeation assay
Assay type: in vitro ADME
Conditions: human, pH 7.2
Method: 4. Caco-2 Permeation Assay:
Caco-2 cells (purchased from DSMZ Braunschweig, Germany) were seeded at a density of 4.5×10^4 cells per well on 24 well insert plates, 0.4 μm pore size, and grown for 15 days in DMEM medium supplemented with 10% fetal bovine serum, 1% GlutaMAX (100×, GIBCO), 100 U/mL penicillin, 100 μg/mL streptomycin (GIBCO) and 1% non essential amino acids (100×). Cells were maintained at 37° C. in a humified 5% CO2 atmosphere. Medium was changed every 2-3 day. Before running the permeation assay, the culture medium was replaced by a FCS-free hepes-carbonate transport buffer (pH 7.2). For assessment of monolayer integrity the transepithelial electrical resistance (TEER) was measured. Test compounds were predissolved in DMSO and added either to the apical or basolateral compartment in final concentration of 2 μM in transport buffer. Before and after 2 h incubation at 37° C. samples were taken from both compartments. Analysis of compound content was done after precipitation with methanol by LC/MS/MS analysis. Permeability (Papp) was calculated in the apical to basolateral (A→B) and basolateral to apical (B→A) directions. The apparent permeability was calculated using following equation: Papp=(Vr/Po)(1/S)(P2/t)
Where Vr is the volume of medium in the receiver chamber, Po is the measured peak area or height of the test drug in the donor chamber at t=o, S the surface area of the monolayer, P2 is the measured peak area of the test drug in the acceptor chamber after 2 h of incubation, and t is the incubation time. The efflux ratio basolateral (B) to apical (A) was calculated by dividing the Papp B-A by the Papp A-B. In addition the compound recovery was calculated. The following reference compounds were used for the classification of the permeability class: Antipyrine, Pyrazosin, Verapamil, Fluvastatin, Cimetidine, Ranitidine, Atenolol, Sulfasalazine.

[1] = Caco-2 monolayer, 2 μM test compound, 2 h

efflux ratio at 2 h, 2 μM (Papp B-A / Papp A-B, Caco-2, 2 μM test compound): 0.49
Papp A→B at 2 h, 2 μM [1]: 20.7 ×10⁻⁶ cm/s
Papp B→A at 2 h, 2 μM [1]: 10.1 ×10⁻⁶ cm/s
SMILES: COc1cc(F)ccc1-c1cc(Nc2cc(CS(C)(=O)=O)ccn2)ncc1F [Example 1, 5-Fluoro-4-(4-fluoro-2-methoxyphenyl)-N-{4-[(methylsulfonyl)methyl]pyridin-2-yl}pyridin-2-amine]
